These are literature values, as cited in publication PMC8042970, “A phase 1 study of dalpiciclib, a cyclin-dependent kinase 4/6 inhibitor in Chinese patients with advanced breast cancer” (Biomarker Research, 2021).

One may read the IC50 as the point on the concentration scale where inhibition reaches its midpoint.

One data set deals with CDK4. Conditions: ref product label or FDA review.
The subject of another data set is CDK6. Conditions: ref product label or FDA review.
Details of data set [1]: method as in product label or FDA review. Conditions: ref product label or FDA review.
On the set-up of data set [2]: method as in product label or FDA review. Conditions: ref product label or FDA review. This is another data set of the same source.
The test system of data set [3] is HR-positive and HER2-negative metastatic breast cancer.
On the set-up of data set [4]: method as in product label or FDA review. Conditions: ref product label or FDA review. This is another data set of the same source.
The mark [5] stands for this setting: single agent abemaciclib, heavily pretreated population.
[6] abbreviates: single agent palbociclib, moderately pretreated population.
[7] abbreviates: phase 1 dose-escalation study of palbociclib.

Where two headings read alike, the source gives them in different places.

As for `CCN1CCN(Cc2ccc(Nc3ncc(F)c(-c4cc(F)c5nc(C)n(C(C)C)c5c4)n3)nc2)CC1` [abemaciclib], the IC50 in the data set with CDK4 was […]. The IC50 in the data set with CDK6 was 9.9 nM. Also, the Metabolism result in data set [1] is on record as “Liver (CYP3A4)”. Besides, in data set [2], the “Excretion, Feces” value was 81% and the “Excretion, Urine” value is listed as 3%. Also, in data set [3] (setting [5]), the DCR is 66.7% and the “Median PFS” value is listed as 5.9 months.
For `CC(=O)c1c(C)c2cnc(Nc3ccc(N4CCNCC4)cn3)nc2n(C2CCCC2)c1=O` [palbociclib], the IC50 in the data set on CDK4 is […]. The IC50 in the data set with CDK6 was […]. The AUCss in data set [4] (at recommended dose) is 1633 to 1982 ng·h/mL. Besides, in data set [4], the Tmax is recorded as 6−12 h, the Volume of distribution is given as 2583 L and the t1/2 is reported as 29 h. Moreover, in data set [3] (setting [6]), the DCR is listed as 63.8% and the “Median PFS” value is recorded as […]. Also, under setting [7], the “MTD and recommended phase 2 dose” value is listed as 125 mg; the “Patients with DLT” value is listed as 12%. Where the note is “phase 1 trial of palbociclib”, the “Patients with QTc value of > 500 ms” value was “none” and the “Patients with maximum increase from baseline QTc of < 30 ms” value was 26 of 41.
Take `CN(C)C(=O)c1cc2cnc(Nc3ccc(N4CCNCC4)cn3)nc2n1C1CCCC1` [ribociclib]: the IC50 in the data set on CDK4 is […]. Also, the Metabolism result in data set [1] is recorded as “Liver (CYP3A4)”. Besides, the “Cmin,ss” value in data set [4] (at recommended dose) is recorded as 631 ng/mL. In addition, in data set [4], the Mild hepatic/renal impairment entry is listed as “No effect on exposure”, the Tmax is 1−4 h and the Volume of distribution was 1090 L. Also, in data set [2], the “Excretion, Feces” value is 69% and the “Excretion, Urine” value is recorded as 23%. Also, under “phase 1 study of ribociclib”, the “DLT: QTcF prolongation” value was 1, the “DLT: increased creatinine” value is recorded as 1, the “DLT: mucositis” value is given as 1 and the “DLT: neutropenia” value is reported as 3 cases. In addition, for the setting “phase 1 study of ribociclib”, the “DLT: pulmonary embolism” value is 1 and the “DLT: thrombocytopenia” value is 2 cases. Further, for the setting “phase 1 study of ribociclib, first treatment cycle”, the “Patients with DLTs” value is recorded as 13%. For the same compound, for the setting “ribociclib”, the “Patients with QTcF prolongation” value is on record as 6–9%.
